The record followed here is patent publication US20230348418A1, “ISOINDOLINONE COMPOUNDS” (Monte Rosa Therapeutics, Inc., priority 2021, published 2023).

A word on the IC50: it is the concentration needed to halve the response being measured.

Where two headings read alike, the source gives them in different places.

In this assay the target is T1, Full length wild-type cereblon CRBN (Homo sapiens, UniProt Q96SW2).
T1 construct: Full length wild-type cereblon CRBN (80.0 nM, 10 μL) was incubated in assay buffer
T1 sequence (Q96SW2 whole entry): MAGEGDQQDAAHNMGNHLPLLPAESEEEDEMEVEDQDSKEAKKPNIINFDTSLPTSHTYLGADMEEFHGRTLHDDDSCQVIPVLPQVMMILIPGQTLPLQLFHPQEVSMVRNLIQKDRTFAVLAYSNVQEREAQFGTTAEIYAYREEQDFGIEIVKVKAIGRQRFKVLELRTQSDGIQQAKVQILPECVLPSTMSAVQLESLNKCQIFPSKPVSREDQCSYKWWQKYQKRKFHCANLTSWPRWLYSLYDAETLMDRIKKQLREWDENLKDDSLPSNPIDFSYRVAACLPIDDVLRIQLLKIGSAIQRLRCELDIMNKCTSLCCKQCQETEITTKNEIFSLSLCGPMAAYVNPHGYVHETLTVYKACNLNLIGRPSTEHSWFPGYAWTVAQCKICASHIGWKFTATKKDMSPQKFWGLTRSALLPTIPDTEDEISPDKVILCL
Kind of assay: Fluorescence polarization (FP) assay, cereblon binding. The source says: Compound activity was monitored in a fluorescence polarization (FP) homogeneous assay using 1-[5-({2-[2-(2-{[2-(2,6-dioxopiperidin-3-yl)-1,3-dioxo-2,3-dihydro-1H-isoindol-4-yl]oxy}acetamido)ethoxy]ethyl}carbamoyl)pentyl]-3,3-dimethyl-2-[(1E,3E)-5-[(2E)-1,3,3-trimethyl-5-sulfo-2,3-dihydro-1H-indol-2-ylidene]penta-1,3-dien-1-yl]-3H-indol-1-ium-5-sulfonate as a fluorescent probe. Unless otherwise stated, all reagents were purchased from Sigma Aldrich. […] Full length wild-type cereblon CRBN (80.0 nM, 10 μL) was incubated in assay buffer containing 20 mM HEPES (pH 8.0), […], 0.5 mM TCEP and 0.05% Tween 20 in the presence or absence of compound (300 nL). Inhibitors were stored as 10 mM DMSO stocks in an inert environment (low humidity, dark, low oxygen, room temperature) using the Storage Pod System. […] Following incubation at room temperature for 30 min, the assay was initiated by dispensing the probe to a final concentration of […] (2.5 nL of a 20 μM stock) using the Echo E5XX. […] The FP signal was subsequently normalized to the no-compound control (i.e., DMSO). Analysis and IC50 values were derived using Dotmatics (Dotmatics UK) software.

The mark [1] stands for this setting: bounds stated in the text lists b2059-b2061, read-out: IC50 value.
The mark [2] stands for this setting: cereblon binding, class code, read-out: rFP IC50.

Consider `O=C1CCC(N2Cc3ccc(COC(=O)Nc4ccc(N5CCC(F)(F)CC5)nc4)cc3C2=O)C(=O)N1` (stereo not shown) [Compound 78], for which, under setting [1], the IC50 was below 1100 nM.

In the case of `O=C1CCC(N2Cc3ccc(COC(=O)Nc4ccc5c(c4)OC(F)(F)O5)cc3C2=O)C(=O)N1` (stereo not shown) [Compound 79], the concentration for half-maximal inhibition (IC50) under setting [1] is below 1700 nM and the IC50 under setting [2] was in the range of 1100 to 1700 nM.

Consider `O=C1CCC(N2Cc3ccc(COC(=O)Nc4ccc(C5CC5)nc4)cc3C2=O)C(=O)N1` (stereo not shown) [Compound 80], for which the IC50 under setting [1] was below 1100 nM.

Take `O=C1CCC(N2Cc3ccc(COC(=O)Nc4ccc(C5COC5)cc4)cc3C2=O)C(=O)N1` (stereo not shown) [Compound 81]: the IC50 under setting [1] is below 1100 nM.

`CN1CCN(c2ccc(NC(=O)OCc3ccc4c(c3)C(=O)N(C3CCC(=O)NC3=O)C4)cn2)CC1` (stereo not shown) [Compound 82]: under setting [1], the IC50 was below 1100 nM.

`CC1(C)COc2cc(NC(=O)OCc3ccc4c(c3)C(=O)N(C3CCC(=O)NC3=O)C4)ccc21` (stereo not shown) [Compound 83]: the IC50 runs as follows: under setting [1], below 1700 nM; under setting [2], 500 to 1100 nM.

As for `O=C1CCC(N2Cc3ccc(COC(=O)Nc4ccc(-c5ccccc5F)nc4)cc3C2=O)C(=O)N1` (stereo not shown) [Compound 84], the IC50 under setting [1] was below 1100 nM.

Take `Cc1ccccc1-c1ccc(NC(=O)OCc2ccc3c(c2)C(=O)N(C2CCC(=O)NC2=O)C3)cn1` (stereo not shown) [Compound 86]: the IC50 under setting [1] is below 1700 nM and the half-maximal inhibitory concentration (IC50) under setting [2] fell in the range of 500 to 1100 nM.

In the case of `COc1ccccc1-c1ccc(NC(=O)OCc2ccc3c(c2)C(=O)N(C2CCC(=O)NC2=O)C3)cn1` (stereo not shown) [Compound 87], the IC50 is below 1700 nM under setting [1] and 500 to 1100 nM under setting [2].

As to `Cc1cc(NC(=O)OCc2ccc3c(c2)C(=O)N(C2CCC(=O)NC2=O)C3)cnc1-c1ccccc1` (stereo not shown) [Compound 88], the IC50 reads like this: under setting [1], below 1700 nM; under setting [2], 500 to 1100 nM.

As for `CN(C)C1CN(c2ccc(NC(=O)OCc3ccc4c(c3)C(=O)N(C3CCC(=O)NC3=O)C4)cn2)C1` (stereo not shown) [Compound 89], the concentration for half-maximal inhibition (IC50) is below 1700 nM under setting [1] and 500 to 1100 nM under setting [2].

As to `COc1cc(NC(=O)OCc2ccc3c(c2)C(=O)N(C2CCC(=O)NC2=O)C3)cnc1-c1ccccc1` (stereo not shown) [Compound 90], the half-inhibitory concentration (IC50) is below 1700 nM under setting [1] and 1100 to 1700 nM under setting [2].

Take `Cc1ncc(NC(=O)OCc2ccc3c(c2)C(=O)N(C2CCC(=O)NC2=O)C3)cc1OC(F)(F)F` (stereo not shown) [Compound 91]: the IC50 by setting is: under setting [1], below 1700 nM; under setting [2], 500 to 1100 nM.

`O=C1CCC(N2Cc3ccc(COC(=O)Nc4ccc5c(c4)OCCC5)cc3C2=O)C(=O)N1` (stereo not shown) [Compound 92]: the IC50 under setting [1] was below 1700 nM and the IC50 under setting [2] is 500 to 1100 nM.

For the compound `O=C1CCC(N2Cc3ccc(COC(=O)Nc4cccc(OC5CC5)c4)cc3C2=O)C(=O)N1` (stereo not shown) [Compound 93], the IC50 by setting is: under setting [1], below 1700 nM; under setting [2], 500 to 1100 nM.

Regarding `O=C1CCC(N2Cc3ccc(COC(=O)Nc4cnc(N5CCCCC5)cn4)cc3C2=O)C(=O)N1` (stereo not shown) [Compound 94], the 50% inhibitory concentration (IC50) under setting [1] was below 1100 nM.

In the case of `O=C1CCC(N2Cc3ccc(COC(=O)Nc4cc(CN5CCOCC5)cc(OC(F)F)c4)cc3C2=O)C(=O)N1` (stereo not shown) [Compound 95], the IC50 under setting [1] was below 1700 nM and the IC50 under setting [2] fell in the range of 1100 to 1700 nM.

As for `O=C1CCC(N2Cc3ccc(COC(=O)Nc4cc(OCCN5CCOCC5)cc(OC(F)F)c4)cc3C2=O)C(=O)N1` (stereo not shown) [Compound 96], the IC50 is, setting by setting: under setting [1], below 1700 nM; under setting [2], 1100 to 1700 nM.

Regarding `COc1ccccc1CNC(=O)OCc1ccc2c(c1)C(=O)N(C1CCC(=O)NC1=O)C2` (stereo not shown) [Compound 97], the half-maximal inhibitory concentration (IC50) under setting [1] is below 1700 nM and the IC50 under setting [2] was 500 to 1100 nM.

As for `O=C1CCC(N2Cc3ccc(COC(=O)NCc4ccccc4)cc3C2=O)C(=O)N1` (stereo not shown) [Compound 98], the IC50 was below 1700 nM under setting [1] and 500 to 1100 nM under setting [2].

Regarding `O=C1CCC(N2Cc3ccc(COC(=O)Nc4cc(CN5CC6CC5CO6)cc(OC(F)F)c4)cc3C2=O)C(=O)N1` (stereo not shown) [Compound 100], the IC50 is below 1700 nM under setting [1] and 500 to 1100 nM under setting [2].

Take `CC(NC(=O)OCc1ccc2c(c1)C(=O)N(C1CCC(=O)NC1=O)C2)c1ccccc1` (stereo not shown) [Compound 102]: the IC50 was below 1700 nM under setting [1] and 500 to 1100 nM under setting [2].

Take `CC1COc2cc(NC(=O)OCc3ccc4c(c3)C(=O)N(C3CCC(=O)NC3=O)C4)ccc21` (stereo not shown) [Compound 103]: the IC50 is below 1700 nM under setting [1] and 500 to 1100 nM under setting [2].
